# Reference: patent publication US20220125877A1, “METHOD FOR TREATING COLORECTAL CANCER” (SUN YAT-SEN UNIVERSITY, priority 2019, published 2022)
# Legend:
# [1] = tested on: ERK, RB, MPK, AKT, mTOR and 4E-BP1 phosphorylation in LoVo; assay: Western blot of MEK/ERK/cyclin D1/RB and PI3K/AKT/mTOR/4E-BP1 signaling; format: cell-based, human; settings: 24 h, FIGS. 9A-C
# Experimental: (§1) Western blot was used to detect the change of metformin on the related molecules of sroliferative signaling pathways MEK/ERK/cyclin D1/RB and PI3K/AKT/mTOR/4E-BP1, which clarifies the mechanism of metformin in inhibiting the proliferation of KRAS mutation CRC cells.
# (§2) 1) Cells were inoculated on a culture dish and cultured to 60% of fusion degree, and treated with the addition of an agent for 24 h.
# (§3) 2) Protein was collected, and washed with PBS for 3 times, then added with 100 μl 1 RSDS buffer solution (100 mmol/1 Tris-Cl pH6.8, 2% SDS, 10% glycerinum), and at this time, the cell lysis solution was sticky.
# (§4) 3) The cell lysis solution was collected into a 0.5 ml centrifugal tube with a scraper, and cooked for 30 min at 100° C.
# (§5) 4) The total protein extractive in the cells was subjected to protein quantification according to a BCA kit process (BIO-RAD company).
# (§6) 5) The sample was treated according to a ratio of 9 μl denatured protein sample: 1 μl denatured buffer solution (β-mercaptoethanol (BME), 0.4% Bromphenol Blue), and boiled for 30 min at 100° C. for further use.
# (§7) 6) A prepared SDS-PAGE gel (10% separation gel and 5% stacking gel) was taken; samples were added with 40 ug/well, and subjected gel electrophoresis for 30 min at 80V, and gel electrophoresis for 90 min at 120V. […]
# KRAS mutation PDX tumor = assay: PDX model, tumor size and weight; format: in vivo, BALB/c nude mice; settings: compared with KRAS wildtype tumor model; 200 mg/kg in water, 30 d, FIG. 7
# Experimental: Use of the PDX model: tumor tissues from the clinical KRAS wildtype and mutation CRC patients were taken, the tumor cells were cultured with a digestion process; after identifying the KRAS mutation, the tumor cells were planted in an axillary fossa area of nude mice.
# 1) Collection of patients' tumor specimens: cancer tissues with non-necrotic edges were taken from specimens obtained after excision, and soaked into a PRMI1640 culture solution containing 5% fetal calf serum, 1×penicillin and streptomycin double-antibodies, and then transported at 4° C.;
# 2) the tumor tissues were cut into small pieces having a size of about 2×2×2 mm on a super clean bench, and cleaned for 3 times with the above culture solution to remove extravasated blood; […]
# 7) when the transplanted tumor grew to 100-200 mm^3, the nude mice were administered intragastrically everyday at 9:00 a.m. for consecutive 28 d. […] The size of the transplanted tumor was measured everyday, volume (mm^3)=[length×width^2]/2;
# 8) the nude mice were killed 30 d layer, and tumor tissues were taken, shoot, measured, embedded and sliced.
# 200 mg/kg (equivalent to human 1000 mg) metformin was dissolved into water, and respectively taken by KRAS wildtype and mutation animals; then the tumor size was measured; 30 d later, the tumor tissues were killed and weighed.
# [2] = tested on: KRAS wildtype CRC cells SW48; assay: Cell cycle, PI/RNase staining, flow cytometry; format: cell-based, human; settings: 24 h, FIG. 8C
# Experimental: (§8) 1) The cells were inoculated onto a 6-well plate, and subjected to adherence growth for 12 h, then starvation treatment over the night, and treated with the addition of an agent for 24 h, then the cells were digested and washed for 3 times with PBS and centrifuged to discard supernatant; −20° C. pre-cooled 70% ethanol was added dropwise, and the cells were mixed well by vortex, and immobilized over the night at −20° C.
# (§9) 2) The cells were horizontally centrifuged for 10 min at 2000 rpm to discard the supernatant; then the cells were washed with PBS for 2-3 times to remove the residual ethanol with centrifugation for 5 min each time.
# (§10) 3) The cells were resuspended by 500 μL PI/RNase dyeing liquor, and incubated for 15 min in the dark, and put on a flow cytometry within 2 h for detection, and 488 nm wavelength was stimulated.
# (§11) 4) FlowJo 7.6 software was used for graphing analysis.
# [3] = tested on: KRAS mutation CRC cells LoVo; assay: Cell cycle, PI/RNase staining, flow cytometry; format: cell-based, human; settings: 24 h, FIG. 8C
# Experimental: as §8, §9, §10, §11
# [4] = tested on: LoVo cell line with stable knock-down KRAS; assay: Concentration of metformin in cells by mass spectrometry; format: cell-based, human; settings: relative to LoVo, FIG. 11D
# Excerpt: (§12) The increase of concentration of metformin in KRAS mutation cells was verified by using the KRAS (G13D) mutation cells constructed via the CRISPR/Cas9 system and the LoVo cell line with stable knock-down KRAS.
# (§13) Metformin was used to detect the KRAS (G13D) mutation cells constructed via the CRISPR/Cas9 system and the LoVo cell line with stable knock-down KRAS to collect cell lysis solution at different time points, and the concentration of metformin in the cells was detected by mass spectrometry.
# [5] = tested on: KRAS (G13D) mutation cells constructed via the CRISPR/Cas9 system; assay: as above; format: cell-based, human; settings: compared with the control cell, FIG. 11C
# Excerpt: as §12, §13
# [6] = tested on: cyclinD1/RB and AKT/mTOR/4E-BP1 signaling pathways in KRAS (G13D) mutation SW48 cell line; assay: Western blot of signaling pathways; format: cell-based, human; settings: FIG. 9D
# Experimental: as §1, §2, §3, §4, §5, §6, §7
# [7] = tested on: 4E-BP1 phosphorylation in LoVo cell line with knock-down KRAS protein; assay: Western blot of signaling pathways; format: cell-based, human; settings: FIG. 9E
# Experimental: as §1, §2, §3, §4, §5, §6, §7
# [8] = tested on: ERK and AKT signaling pathways of KRAS mutation CRC cells in PDX tumor tissues; assay: Western blot of PDX tumor tissues; format: in vivo, BALB/c nude mice; settings: FIG. 9F
# Excerpt: (2) Tumor tissues from PDX animals were taken and homogenated to extract protein for WB.
smiles,measurement,setting,value
CN(C)C(=N)N=C(N)N [metformin],"phosphorylation levels in ERK, RB, MPK, AKT, mTOR and 4E-BP1",[1],inhibited phosphorylation levels
same,tumor size,KRAS mutation PDX tumor,obviously inhibit
same,tumor weight,KRAS mutation PDX tumor,obviously inhibit
same,"cell cycle distribution (G1, phase S)",[2],no obvious effect
same,ratio of phase S cells,[3],reduces
same,ratio of G1 cells,[3]; concentration dependent,dependently increases
same,concentration of metformin in cells,[4],decreases obviously
same,concentration of metformin in cells,[5],obviously increased concentration
same,change of the cyclinD1/RB and AKT/mTOR/4E-BP1 signaling pathways,[6],consistent with the KRAS mutation CRC cells LoVo
same,inhibiting effect on LoVo protein and 4E-BP1 phosphorylation after interference of KRAS (G13D) expression,[7],down-regulate the inhibiting effect
same,ERK and AKT signaling pathways in PDX tumor tissues,[8],inhibits
